Reference: US10100076B2, “Modified nucleosides for the treatment of viral infections and abnormal cellular proliferation” (priority 2000, dated 2018)

test system: Vero cells; assay: cells; assay type: cell-based; details: Chlorocebus sabaeus, Vero, read-out: Toxicity IC50
Procedure: (§1) The cytotoxicity testing as performed herein is a standard technique. Briefly, cells are seeded in 96-well plates at various concentrations (dependent on cell type, duration of assay), typically at 5×10^3 cells per well, in the presence of increasing concentrations of the test compound (0, 1, 3, 10, 33, and 100 μM). After three (Vero cells), or four (CEM cells), or five (PBM cells) day-incubation, cell viability and mitochondrial activity are measured by adding the MTT-dye (Promega), followed by a 8 hours incubation. Afterwards the plates containing the dye are fixed by adding a stop-solution followed by another eight hour incubation. Finally, absorbance is read at 570 nm. Such methodologies are well described and available from the manufacturer (Promega).

Compound	IC50 [nM]
C[C@@H]1C[C@@H]([C@H](O)CC2CC(=O)NC(=O)C2)C(=O)[C@@H](C)C1 [cyclo-heximide]	2100

same assay, conditions: Vero (African green monkey kidney cell line); MTT assay, incubation 3-5 days; read-out: Toxicity IC50

Compound	IC50 [nM]
O=c1[nH]cc(F)c(=O)[nH]1 [5FU]	65000
Nc1ccn([C@@H]2O[C@H](CO)[C@@H](O)[C@@H]2O)c(=O)n1 [Ara-C, reference compound]	800

test system: CEM cells; assay: cells; assay type: cell-based, human; details: CEM (human T-cell lymphoma cell line); MTT assay, incubation 3-5 days; read-out: Toxicity IC50
Procedure: as §1

Compound	IC50 [nM]
O=c1[nH]cc(F)c(=O)[nH]1 [5FU]	90500
Nc1ccn([C@@H]2O[C@H](CO)[C@@H](O)[C@@H]2O)c(=O)n1 [Ara-C, reference compound]	600

same assay, conditions: Homo sapiens, CCRF-CEM, read-out: Toxicity IC50

Compound	IC50 [nM]
C[C@@H]1C[C@@H]([C@H](O)CC2CC(=O)NC(=O)C2)C(=O)[C@@H](C)C1 [cyclo-heximide]	100

test system: PBM cells; assay: cells; assay type: cell-based, human; details: Homo sapiens, PBMC, read-out: Toxicity IC50
Procedure: as §1

Compound	IC50 [µM]
C[C@@H]1C[C@@H]([C@H](O)CC2CC(=O)NC(=O)C2)C(=O)[C@@H](C)C1 [cyclo-heximide]	2.6

same assay, conditions: PBM (human peripheral blood mononuclear cells); MTT assay, incubation 3-5 days; read-out: Toxicity IC50

Compound	IC50 [µM]
O=c1[nH]cc(F)c(=O)[nH]1 [5FU]	13.7
Nc1ccn([C@@H]2O[C@H](CO)[C@@H](O)[C@@H]2O)c(=O)n1 [Ara-C, reference compound]	7

test system: human malignant T and B cells and various tumor cell lines; assay: Toxicity profile against human malignant T and B cells and various tumor cell lines (MTT, IC50); assay type: cell-based; details: BL41 (human B-cell lymphoma cell line); MTT assay, 3-5 days; read-out: Toxicity IC50
Procedure: as §1, with “Cytotoxicity” for “The cytotoxicity”, “here are” for “herein is a”, “techniques.” for “technique.”, “Depending on the cell-type incubation with test compound can vary in time, but is usually within the range of 3 to 5 days. Cell” for “After three (Vero cells), or four (CEM cells), or five (PBM cells) day-incubation, cell”, “eight” for “a 8”, “hours of” for “hours”
In order to explore the complete potential of this compound, a set of human malignant T and B cells and various tumor cell lines were incubated with […] at varying concentrations, and after the absorbance was read, an IC50 value was calculated. As a control, Ara-C, 5FU, and cyclo-heximide was taken alongside (Table 26).

Compound	IC50 [µM]
O=c1[nH]cc(F)c(=O)[nH]1 [5FU]	24.1

same assay, conditions: H9 (human T-cell lymphoblast cell line); MTT assay, 3-5 days; read-out: Toxicity IC50

Compound	IC50 [µM]
O=c1[nH]cc(F)c(=O)[nH]1 [5FU]	14.2

same assay, conditions: HEPG2 (human liver carcinoma cell line); MTT assay, 3-5 days; read-out: Toxicity IC50

Compound	IC50 [µM]
O=c1[nH]cc(F)c(=O)[nH]1 [5FU]	40.6

same assay, conditions: Homo sapiens, B-cell, read-out: Toxicity IC50, H9 (human T-cell lymphoblast cell line); MTT assay, 3-5 days

Compound	IC50 [µM]
C[C@@H]1C[C@@H]([C@H](O)CC2CC(=O)NC(=O)C2)C(=O)[C@@H](C)C1 [cyclo-heximide]	1

same assay, conditions: Homo sapiens, B-cell, read-out: Toxicity IC50, JY (human B-cell lymphoma cell line, EBV transformed); MTT assay, 3-5 days

Compound	IC50 [µM]
C[C@@H]1C[C@@H]([C@H](O)CC2CC(=O)NC(=O)C2)C(=O)[C@@H](C)C1 [cyclo-heximide]	0.8

same assay, conditions: Homo sapiens, BL-41, read-out: Toxicity IC50, BL41 (human B-cell lymphoma cell line); MTT assay, 3-5 days

Compound	IC50 [µM]
C[C@@H]1C[C@@H]([C@H](O)CC2CC(=O)NC(=O)C2)C(=O)[C@@H](C)C1 [cyclo-heximide]	0.3

same assay, conditions: Homo sapiens, HepG2, read-out: Toxicity IC50, HEPG2 (human liver carcinoma cell line); MTT assay, 3-5 days

Compound	IC50 [µM]
C[C@@H]1C[C@@H]([C@H](O)CC2CC(=O)NC(=O)C2)C(=O)[C@@H](C)C1 [cyclo-heximide]	3.6

same assay, conditions: Homo sapiens, LNCaP, read-out: Toxicity IC50, LNCaP (human prostate adenocarcinoma cell line); MTT assay, 3-5 days

Compound	IC50 [µM]
C[C@@H]1C[C@@H]([C@H](O)CC2CC(=O)NC(=O)C2)C(=O)[C@@H](C)C1 [cyclo-heximide]	2.4

same assay, conditions: Homo sapiens, MCF7, read-out: Toxicity IC50, MCF-7 (human breast carcinoma cell line); MTT assay, 3-5 days

Compound	IC50 [µM]
C[C@@H]1C[C@@H]([C@H](O)CC2CC(=O)NC(=O)C2)C(=O)[C@@H](C)C1 [cyclo-heximide]	1.5

same assay, conditions: Homo sapiens, SK-MEL-28, read-out: Toxicity IC50, SK-MEL-28 (human melanoma cell line); MTT assay, 3-5 days

Compound	IC50 [µM]
C[C@@H]1C[C@@H]([C@H](O)CC2CC(=O)NC(=O)C2)C(=O)[C@@H](C)C1 [cyclo-heximide]	1

same assay, conditions: Homo sapiens, SK-MES-1, read-out: Toxicity IC50, SK-MES-1 (human lung squamous carcinoma cell line); MTT assay, 3-5 days

Compound	IC50 [µM]
C[C@@H]1C[C@@H]([C@H](O)CC2CC(=O)NC(=O)C2)C(=O)[C@@H](C)C1 [cyclo-heximide]	3.4

same assay, conditions: Homo sapiens, SU-DHL-1, read-out: Toxicity IC50, SUDHL-1 (human anaplastic large T-cell lymphoma cell line); MTT assay, 3-5 days

Compound	IC50 [µM]
C[C@@H]1C[C@@H]([C@H](O)CC2CC(=O)NC(=O)C2)C(=O)[C@@H](C)C1 [cyclo-heximide]	0.3

same assay, conditions: Homo sapiens, SUP-T1, read-out: Toxicity IC50, SupT1 (human T-cell lymphoblast cell line); MTT assay, 3-5 days

Compound	IC50 [µM]
C[C@@H]1C[C@@H]([C@H](O)CC2CC(=O)NC(=O)C2)C(=O)[C@@H](C)C1 [cyclo-heximide]	0.6

same assay, conditions: JY (human B-cell lymphoma cell line, EBV transformed); MTT assay, 3-5 days; read-out: Toxicity IC50

Compound	IC50 [µM]
O=c1[nH]cc(F)c(=O)[nH]1 [5FU]	7.5

same assay, conditions: LNCaP (human prostate adenocarcinoma cell line); MTT assay, 3-5 days; read-out: Toxicity IC50

Compound	IC50 [µM]
O=c1[nH]cc(F)c(=O)[nH]1 [5FU]	22.1

same assay, conditions: MCF-7 (human breast carcinoma cell line); MTT assay, 3-5 days; read-out: Toxicity IC50

Compound	IC50 [µM]
O=c1[nH]cc(F)c(=O)[nH]1 [5FU]	43.7

same assay, conditions: SK-MEL-28 (human melanoma cell line); MTT assay, 3-5 days; read-out: Toxicity IC50

Compound	IC50 [µM]
O=c1[nH]cc(F)c(=O)[nH]1 [5FU]	11.2

same assay, conditions: SK-MES-1 (human lung squamous carcinoma cell line); MTT assay, 3-5 days; read-out: Toxicity IC50

Compound	IC50 [µM]
O=c1[nH]cc(F)c(=O)[nH]1 [5FU]	13.1

same assay, conditions: SUDHL-1 (human anaplastic large T-cell lymphoma cell line); MTT assay, 3-5 days; read-out: Toxicity IC50

Compound	IC50 [µM]
Nc1ccn([C@@H]2O[C@H](CO)[C@@H](O)[C@@H]2O)c(=O)n1 [Ara-C, reference compound]	3.7

same assay, conditions: SupT1 (human T-cell lymphoblast cell line); MTT assay, 3-5 days; read-out: Toxicity IC50

Compound	IC50 [µM]
O=c1[nH]cc(F)c(=O)[nH]1 [5FU]	53.6

test system: rRNA (host RNA polymerase I product); assay: rRNA ΔCt in Huh7 replicon cells (effect on host RNA polymerases); details: Table 24, average of n
Text: In a typical setting, a compound might reduce both the host RNA polymerase activity and the replicon-encoded polymerase activity. Therefore, quantification of rRNA (or any other host RNA polymerase I product) or beta-actin mRNA (or any other host RNA polymerase II) and comparison with RNA levels of the no-drug control is a relative measurement of the effect of the test compound on host RNA polymerases.
With the availability of both the HCV ΔCt data and the rRNA ΔCt, a specificity parameter can be introduced. This parameter is obtained by subtracting both ΔCt values from each other.

Compound	Ave. rRNA ΔCt
O=c1nc(NO)c(Br)cn1[C@@H]1O[C@H](CO)[C@@H](O)[C@H]1O [β-D-BU]	2.18

test system: HCV replicon; assay: HCV replicon system in Huh7 cells, replicon RNA by Q-RT-PCR (HCV ΔCt, ΔΔCt); assay type: cell-based, hepatitis C virus; details: Table 24; HCV RNA ΔCt minus rRNA ΔCt

Compound	Ave. ΔΔCt
O=c1nc(NO)c(Br)cn1[C@@H]1O[C@H](CO)[C@@H](O)[C@H]1O [β-D-BU]	1.06

same assay, conditions: Table 24; HCV replicon in Huh7 cells; average of n

Compound	Ave. HCV RNA ΔCt
O=c1nc(NO)c(Br)cn1[C@@H]1O[C@H](CO)[C@@H](O)[C@H]1O [β-D-BU]	3.46

same assay, conditions: Table 25; HCV RNA ΔCt minus rDNA ΔCt

Compound	average ΔΔCt
O=c1nc(NO)c(Br)cn1[C@@H]1O[C@H](CO)[C@@H](O)[C@H]1O [β-D-BU]	1.16

same assay, conditions: Table 25; HCV replicon in Huh7 cells; average of N

Compound	Ave. HCV RNA ΔCt
O=c1nc(NO)c(Br)cn1[C@@H]1O[C@H](CO)[C@@H](O)[C@H]1O [β-D-BU]	3.46

test system: rDNA (host DNA); assay: rDNA ΔCt in Huh7 replicon cells (effect on cellular DNA polymerases); details: Table 25, average of N
Text: In another typical setting, a compound might reduce the host RNA polymerase activity, but not the host DNA polymerase activity. Therefore, quantification of rDNA or beta-actin DNA (or any other host DNA fragment) and comparison with DNA levels of the no-drug control is a relative measurement of the inhibitory effect of the test compound on cellular DNA polymerases.
With the availability of both the HCV ΔCt data and the rDNA ΔCt, a specificity parameter can be introduced. This parameter is obtained by subtracting both ΔCt values from each other.

Compound	Ave. rDNA ΔCt
O=c1nc(NO)c(Br)cn1[C@@H]1O[C@H](CO)[C@@H](O)[C@H]1O [β-D-BU]	1.10
